Here are results for one compound from patent US20240182407A1, “QUINOLINE COMPOUND SALT OR CRYSTAL FORM, PREPARATION METHOD THEREFOR, AND APPLICATION THEREOF” (Nanjing Zenshine Pharmaceuticals Co., Ltd., priority 2021, published 2024).

Structures are written as SMILES. Where “and” joins values, the source holds several entries; their conditions need not be identical. Equal entries are not always repeated.

Data set [1] concerns SU-DHL-4. In words: Proliferation of lymphoma cell line in vitro, SU-DHL-4. The data set is classed as cell-based. The conditions noted are these: Homo sapiens, read-out: absolute IC50 (AbsIC50), proliferation.
For data set [2], the target named is T1, PI3Kγ (Mus musculus, UniProt Q9JHG7).
T1 construct: host or cells: Raw264.7 cells
T1 sequence (Q9JHG7 whole entry): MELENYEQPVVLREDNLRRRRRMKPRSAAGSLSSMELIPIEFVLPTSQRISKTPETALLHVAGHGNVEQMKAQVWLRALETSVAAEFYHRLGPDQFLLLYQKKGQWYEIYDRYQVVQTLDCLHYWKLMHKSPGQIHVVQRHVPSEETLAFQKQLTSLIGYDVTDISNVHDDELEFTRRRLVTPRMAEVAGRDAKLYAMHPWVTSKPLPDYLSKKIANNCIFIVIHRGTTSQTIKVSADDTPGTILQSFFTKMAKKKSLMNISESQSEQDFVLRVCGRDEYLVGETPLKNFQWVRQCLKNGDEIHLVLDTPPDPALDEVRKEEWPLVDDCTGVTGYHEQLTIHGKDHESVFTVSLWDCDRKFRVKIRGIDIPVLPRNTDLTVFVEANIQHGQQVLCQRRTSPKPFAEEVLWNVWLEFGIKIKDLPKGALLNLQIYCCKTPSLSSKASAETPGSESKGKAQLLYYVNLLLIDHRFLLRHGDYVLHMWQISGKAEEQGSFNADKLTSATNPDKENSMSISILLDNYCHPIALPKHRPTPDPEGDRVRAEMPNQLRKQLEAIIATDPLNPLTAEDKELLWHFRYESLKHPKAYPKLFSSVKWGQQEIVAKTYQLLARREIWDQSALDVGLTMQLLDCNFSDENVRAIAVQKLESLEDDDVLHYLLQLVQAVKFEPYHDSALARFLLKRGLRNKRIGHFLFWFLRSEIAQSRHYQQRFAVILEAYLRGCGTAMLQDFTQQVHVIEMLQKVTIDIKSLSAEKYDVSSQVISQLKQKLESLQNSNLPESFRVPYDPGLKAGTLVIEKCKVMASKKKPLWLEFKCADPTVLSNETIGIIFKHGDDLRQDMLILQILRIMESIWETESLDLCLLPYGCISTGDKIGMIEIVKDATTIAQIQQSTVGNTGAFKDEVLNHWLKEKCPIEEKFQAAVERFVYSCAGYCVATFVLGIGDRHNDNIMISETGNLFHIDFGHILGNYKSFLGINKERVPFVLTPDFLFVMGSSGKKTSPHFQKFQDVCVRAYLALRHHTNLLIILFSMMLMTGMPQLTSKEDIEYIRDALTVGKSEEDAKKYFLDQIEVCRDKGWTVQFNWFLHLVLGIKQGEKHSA
In words: Akt phosphorylation in Raw264.7 cells stimulated by c5α (AlphaLISA). The following applies: phosphorylation of Akt, read-out: IC50 PI3Kγ Cell-based. The protocol:
In addition, taking Sample 6 as an example, the inhibitory effects thereof on PI3Kα, PI3Kβ, PI3Kγ and PI3Kδ in corresponding cells were determined. The activity of PI3Kα was detected by the phosphorylation level of Akt in C2Cl2 cells stimulated by IGF-1, the activity of PI3Kβ was detected by the phosphorylation level of Akt in PC-3 cells stimulated by LPA, the activity of PI3Kγ was detected by the phosphorylation level of Akt in Raw264.7 cells stimulated by c5α, and the activity of PI3Kδ was detected by the phosphorylation level of Akt in Raji cells stimulated by IgM. The phosphorylation level of Akt in cells was determined by means of AlphaLISA technique from PerkinElemer.
The C2C12 cells, PC-3 cells, Raw264.7 cells and Raji cells were all purchased from ATCC.
On the technique in general: Alpha assays give light when donor and acceptor beads are brought close together.

A short description of data set [3]: Crystal form stability under grinding (XRPD). It is filed as physicochemical. The conditions noted are these: ground in a mortar for 2 min. The procedure: (§1) In addition, the stability of p-toluenesulfonate crystal form I (Sample 8) under grinding and high humidity conditions was investigated.
A certain amount of p-toluenesulfonate crystal form I was ground in a mortar for 2 min and then measured by XRPD.

The test system of data set [4] is SU-DHL-6. In words: Proliferation of lymphoma cell line in vitro, SU-DHL-6. The following applies: Homo sapiens, read-out: absolute IC50 (AbsIC50), proliferation. It is filed as cell-based.
A short description of data set [5]: Crystal form stability under high humidity (XRPD). The data set is classed as physicochemical. The conditions noted are these: RT/92.5% RH, 11 days.
Description: as §1
For example, the p-toluenesulfonate crystal form I sample was placed at RT/92.5% RH for 11 days and then measured by XRPD.

Data set [6] can be described thus: Solid stability, 40° C./75% RH and 60° C., one week (HPLC purity, XRPD). It is filed as physicochemical. The protocol: Appropriate amounts of Compound A and p-toluenesulfonate of Compound A (Sample 5, crystal form I) were respectively placed in 40° C./75% RH and 60° C. environments for one week to determine solid stability. At days 0 and 7, HPLC purity analysis and solid XRPD determination were carried out, and some of the results were as shown in Table 7.

`C[C@H](Nc1nc(N)nc(N)c1C#N)c1cc2ccc(F)cc2nc1-c1ccccn1` [p-toluenesulfonate of Compound A]: the results for the IC50 in data set [1], in data set [2] and in data set [4] were less than 100 nM, 29 nM and less than 100 nM, respectively. Besides, in data set [3], the “crystal form after grinding (XRPD)” value is reported as “still p-toluenesulfonate crystal form I”. Further, in data set [5], the “crystal form after high humidity (XRPD)” value is on record as “crystal form of the sample did not change”. Besides, the “physical and chemical stability (purity and crystal form)” value in data set [6] (40° C./75% RH and 60° C., 7 days) was “no change in purity and crystal form”. The “Purity (peak area %) Average - 40° C./75% RH - 7 d” value in data set [6] (solid, 40° C./75% RH, 7 d, average, listed as Sample 5) turned out to be 99.69 peak area %. Also, in data set [6] (solid, 40° C./75% RH, 7 d, single determinations, listed as Sample 5), the “Purity (peak area %) 40° C./75% RH - 7 d” value was 99.68 peak area % and 99.69 peak area %. Also, the “Purity (peak area %) Average - 60° C. - 7 d” value in data set [6] (solid, 60° C., 7 d, average, listed as Sample 5) came out at 99.65 peak area %. In data set [6] (solid, 60° C., 7 d, single determinations, listed as Sample 5), the “Purity (peak area %) 60° C. - 7 d” value is 99.56 peak area % and 99.74 peak area %. Moreover, the “Purity (peak area %) Average - 0 d” value in data set [6] (solid, day 0, average, listed as Sample 5) was 99.48 peak area %. The “Purity (peak area %) 0 d” value in data set [6] (solid, day 0, single determinations, listed as Sample 5) is 99.46 peak area % and 99.49 peak area %.
